Results reported in patent EP1444982A1, “The use of purine derivatives as selective kinase inhibitors” (MERCKLE GMBH, priority 2003, dated 2004).

How the values were obtained:
Type in all cases: biochemical
GSK3β (h) = GSK3β (h) (Homo sapiens, UniProt P49841); test: Kinase inhibition assay (33P-ATP, P30 filter, scintillation counting): GSK3β; conditions: 30µM Testsubstanz (100 µM ATP); read-out: Hemmung von Kinasen in % GSK3β (h)
Experimental: (§1) Alle Kinasen werden auf zehnfache Arbeitskonzentration vor Anwendung in dem Essay verdünnt. Die Zusammensetzung des Verdünnungspuffers ist für jede Kinase in der nachfolgenden Tabelle angegeben.
(§2) Alle Substrate werden gelöst und auf eine Stammlösung in entsalztem Wasser verdünnt.
GSK3β (h)(5-10mU) in einem Endreaktionsvolumen von 25 µl wird mit 8 mM MOPS pH 7.0, 0.2 mM EDTA, 20 µM […](p) EDEEE (phospho GS2 Peptid), 10 mM MgAcetat und [γ-^33P-ATP] inkubiert (spezifische Aktivität etwa 500 cpm/pmol, Konzentration wie erforderlich). Die Reaktion wird durch Zugabe von Mg^2+[γ-^33P-ATP] initiiert. Nach 40-minütiger Inkubation bei Raumtemperatur wird die Reaktion durch Zugabe von 5 µl einer 3 %igen Phosphorsäurelösung gestoppt. 10 µl der Reaktion werden dann auf ein P30-Filter gegeben und dreimal jeweils 5 Minuten in 50 mM Phosphorsäure und einmal in Methanol gewaschen. Anschließend wird getrocknet und eine Szintillationszählung durchgeführt.

PKB (h) = PKB (h) (Homo sapiens, UniProt P31749); test: Kinase inhibition assay (33P-ATP, P30 filter, scintillation counting): PKB; conditions: 40 min; 30µM Testsubstanz (100 µM ATP); read-out: Hemmung von Kinasen in % PKB (h)
Chain of PKB (h) (P31749 whole entry): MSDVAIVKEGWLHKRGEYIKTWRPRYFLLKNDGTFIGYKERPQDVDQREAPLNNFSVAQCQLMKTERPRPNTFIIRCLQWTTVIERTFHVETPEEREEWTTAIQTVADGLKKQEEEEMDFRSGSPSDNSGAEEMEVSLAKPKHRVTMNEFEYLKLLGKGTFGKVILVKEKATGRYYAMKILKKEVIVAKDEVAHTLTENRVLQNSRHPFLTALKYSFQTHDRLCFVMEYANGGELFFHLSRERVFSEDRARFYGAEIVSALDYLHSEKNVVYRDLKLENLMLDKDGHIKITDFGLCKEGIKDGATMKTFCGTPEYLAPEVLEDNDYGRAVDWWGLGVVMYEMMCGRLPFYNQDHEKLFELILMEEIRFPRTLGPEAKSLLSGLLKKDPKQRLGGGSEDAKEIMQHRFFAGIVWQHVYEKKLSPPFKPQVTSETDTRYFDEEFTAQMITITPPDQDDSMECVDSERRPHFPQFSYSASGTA
Experimental: as §1, §2
(§3) PKBα (h)(5-10mU) wird in einem Endreaktionsvolumen von 25 µl mit 8 mM MOPS pH 7.0, 0.2 mM EDTRA, 30 µM GRPRTSSFAEGKK, 10 mM MgAcetat und [γ-^33P-ATP] inkubiert (spezifische Aktivität etwa 50 cpm/pmol, Konzentration wie erforderlich). Die Reaktion wird durch Zugabe von Mg^2+[γ-^33P-ATP] initiiert. Nach 40-minütiger Inkubation bei Raumtemperatur wird die Reaktion durch Zugabe von 5 µl einer 3 %igen Phosphorsäurelösung gestoppt. 10 µl der Reaktion werden dann auf ein P30-Filter gegeben und dreimal jeweils 5 Minuten in 50 mM Phosphorsäure und einmal in Methanol gewaschen. Anschließend wird getrocknet und eine Szintillationszählung durchgeführt.

SAPK2a (h) = SAPK2a (h) (Homo sapiens, UniProt Q16539); test: Kinase inhibition assay (33P-ATP, P30 filter, scintillation counting): SAPK2a; conditions: 30µM Testsubstanz (100 µM ATP); read-out: Hemmung von Kinasen in % SAPK2a (h)
Chain of SAPK2a (h) (Q16539 whole entry): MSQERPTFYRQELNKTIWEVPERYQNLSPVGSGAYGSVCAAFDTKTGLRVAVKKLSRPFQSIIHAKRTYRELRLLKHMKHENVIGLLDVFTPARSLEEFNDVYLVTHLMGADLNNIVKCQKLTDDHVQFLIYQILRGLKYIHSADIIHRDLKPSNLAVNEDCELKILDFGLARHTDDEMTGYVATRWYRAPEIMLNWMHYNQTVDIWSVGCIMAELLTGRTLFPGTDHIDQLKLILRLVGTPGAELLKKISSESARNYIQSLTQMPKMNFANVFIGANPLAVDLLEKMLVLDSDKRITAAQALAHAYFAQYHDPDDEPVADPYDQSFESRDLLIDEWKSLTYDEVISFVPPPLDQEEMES
Experimental: as §1, §2
as §3, with “SAPK2a (h)” for “PKBα (h)(5-10mU)”, “25” for “8”, “Tris” for “MOPS”, “7,5, 0.02” for “7.0, 0.2”, “EGTA, 0.33 mg/ml Myelin-Basisprotein,” for “EDTRA, 30 µM GRPRTSSFAEGKK,”

Lck (h) = Lck (h) (Homo sapiens, UniProt P06239); test: Kinase inhibition assay (33P-ATP, P30 filter, scintillation counting): Lck; conditions: 30µM Testsubstanz (100 µM ATP); read-out: Hemmung von Kinasen in % Lck (h)
Chain of Lck (h) (P06239 whole entry): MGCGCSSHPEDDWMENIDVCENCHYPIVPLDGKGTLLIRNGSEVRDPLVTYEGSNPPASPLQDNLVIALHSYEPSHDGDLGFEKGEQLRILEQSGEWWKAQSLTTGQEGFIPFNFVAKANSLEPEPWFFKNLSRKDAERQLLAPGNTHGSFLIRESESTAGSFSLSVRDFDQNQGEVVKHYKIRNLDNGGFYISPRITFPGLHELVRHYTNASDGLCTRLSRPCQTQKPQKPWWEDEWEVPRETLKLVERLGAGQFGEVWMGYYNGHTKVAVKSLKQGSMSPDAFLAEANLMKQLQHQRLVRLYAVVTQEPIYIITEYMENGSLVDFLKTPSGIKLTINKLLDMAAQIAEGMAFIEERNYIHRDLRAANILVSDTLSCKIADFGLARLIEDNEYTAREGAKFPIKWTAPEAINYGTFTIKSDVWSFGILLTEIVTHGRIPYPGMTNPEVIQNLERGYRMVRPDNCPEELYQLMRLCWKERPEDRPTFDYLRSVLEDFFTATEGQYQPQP
Experimental: as §1, §2
(§4) Lck (h)(5-10 mU) in einem Endreaktionsvolumen von 25 µl wird mit 50 mM Tris pH 7.5, 0.1 mM EGTA, 0.1 mM NaVanadate, 250 µM KVEKIGEGTYGVVYK (Cdc2 Peptid), 10 mM MgAcetat und [γ-^33P-ATP] inkubiert (spezifische Aktivität etwa 500 cpm/pmol, Konzentration wie erforderlich). Die Reaktion wird durch Zugabe von Mg^2+[γ-^33P-ATP] initiiert. Nach 40-minütiger Inkubation bei Raumtemperatur wird die Reaktion durch Zugabe von 5 µl einer 3 %igen Phosphorsäurelösung gestoppt. 10 µl der Reaktion werden dann auf ein P30-Filter gegeben und dreimal jeweils 5 Minuten in 50 mM Phosphorsäure und einmal in Methanol gewaschen. Anschließend wird getrocknet und eine Szintillationszählung durchgeführt.

MAPK2 (h) = MAPK2 (h) (Homo sapiens, UniProt P28482); test: Kinase inhibition assay: MAPK2; conditions: 30µM Testsubstanz (100 µM ATP); read-out: Hemmung von Kinasen in % MAPK2 (h)
Chain of MAPK2 (h) (P28482 whole entry): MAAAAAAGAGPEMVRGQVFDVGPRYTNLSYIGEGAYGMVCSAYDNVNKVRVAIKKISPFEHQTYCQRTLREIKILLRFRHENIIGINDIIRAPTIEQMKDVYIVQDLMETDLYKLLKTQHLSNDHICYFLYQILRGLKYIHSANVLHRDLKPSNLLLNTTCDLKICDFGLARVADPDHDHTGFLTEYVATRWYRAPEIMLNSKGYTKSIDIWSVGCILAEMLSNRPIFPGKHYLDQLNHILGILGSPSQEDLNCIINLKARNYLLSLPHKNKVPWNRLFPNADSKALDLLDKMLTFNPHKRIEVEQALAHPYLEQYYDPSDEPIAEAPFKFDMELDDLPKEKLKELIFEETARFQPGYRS
From the text: as §1, §2

MEK1 (h) = MEK1 (h) (Homo sapiens, UniProt Q02750); test: Kinase inhibition assay: MEK1 (coupled to MAPK2 assay); conditions: 30µM Testsubstanz (100 µM ATP); read-out: Hemmung von Kinasen in % MEK1 (h)
Chain of MEK1 (h) (Q02750 whole entry): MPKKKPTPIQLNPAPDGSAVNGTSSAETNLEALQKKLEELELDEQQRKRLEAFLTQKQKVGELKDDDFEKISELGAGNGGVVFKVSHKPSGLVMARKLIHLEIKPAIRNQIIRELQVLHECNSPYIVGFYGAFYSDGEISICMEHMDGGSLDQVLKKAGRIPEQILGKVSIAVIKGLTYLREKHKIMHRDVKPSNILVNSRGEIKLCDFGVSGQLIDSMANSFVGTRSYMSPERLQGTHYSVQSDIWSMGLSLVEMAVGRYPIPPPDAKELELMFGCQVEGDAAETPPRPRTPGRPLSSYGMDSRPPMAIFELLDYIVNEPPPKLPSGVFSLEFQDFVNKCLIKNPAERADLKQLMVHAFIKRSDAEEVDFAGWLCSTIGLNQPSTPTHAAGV
Experimental: as §1, §2
MEK1 (h)(1-5 mU) in einem Endreaktionsvolumen von 25 µl wird mit 50 mM Tris pH 7.5, 0.2 mM EGTA, 0.1 % b-Mercaptoethanol, 0,01 % Brij-35, 1 µM inaktives MAPK2 (m), 10 mM MgAcetat und kaltem ATP inkubiert (Konzentration wie erforderlich). Die Reaktion wird durch Zugabe von MgATB initiiert. Nach 40-minütiger Inkubation bei Raumtemperatur werden […] dieses Inkubationsgemisches dazu verwendet, den oben beschriebenen MAPK2-Assay zu initiieren.

JNK3 (r) = JNK3 (r) (Rattus norvegicus, UniProt P49187); test: Kinase inhibition assay: JNK3; conditions: 30µM Testsubstanz (100 µM ATP); read-out: Hemmung von Kinasen in % JNK3 (r)
Chain of JNK3 (r) (P49187 whole entry): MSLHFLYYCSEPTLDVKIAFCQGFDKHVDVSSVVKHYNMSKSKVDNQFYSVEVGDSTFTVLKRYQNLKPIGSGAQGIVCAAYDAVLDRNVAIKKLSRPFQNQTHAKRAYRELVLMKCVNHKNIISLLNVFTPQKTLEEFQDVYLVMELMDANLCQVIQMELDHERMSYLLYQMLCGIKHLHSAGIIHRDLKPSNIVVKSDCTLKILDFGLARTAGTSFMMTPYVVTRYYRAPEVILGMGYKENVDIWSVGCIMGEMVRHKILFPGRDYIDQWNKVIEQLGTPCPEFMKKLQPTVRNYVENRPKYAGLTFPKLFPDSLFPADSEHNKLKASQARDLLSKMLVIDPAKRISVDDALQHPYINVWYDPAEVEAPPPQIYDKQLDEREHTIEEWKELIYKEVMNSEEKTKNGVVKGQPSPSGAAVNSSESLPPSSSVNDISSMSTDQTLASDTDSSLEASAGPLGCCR
From the text: as §1, §2

MAPK1 (h) = MAPK1 (h) (Homo sapiens, UniProt P27361); test: Kinase inhibition assay: MAPK1; conditions: 30µM Testsubstanz (100 µM ATP); read-out: Hemmung von Kinasen in % MAPK1 (h)
Chain of MAPK1 (h) (P27361 whole entry): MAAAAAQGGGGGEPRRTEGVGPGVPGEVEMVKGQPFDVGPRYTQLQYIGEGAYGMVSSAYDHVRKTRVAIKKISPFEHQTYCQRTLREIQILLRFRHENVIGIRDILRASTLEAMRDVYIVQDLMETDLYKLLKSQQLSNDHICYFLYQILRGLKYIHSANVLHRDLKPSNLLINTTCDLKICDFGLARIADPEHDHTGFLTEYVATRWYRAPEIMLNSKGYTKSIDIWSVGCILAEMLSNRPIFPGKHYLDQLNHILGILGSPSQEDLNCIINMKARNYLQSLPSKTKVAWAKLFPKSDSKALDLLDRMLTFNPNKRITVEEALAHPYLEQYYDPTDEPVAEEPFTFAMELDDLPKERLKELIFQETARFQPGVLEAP
From the text: as §1, §2

c-RAF (h) = c-RAF (h) (Homo sapiens, UniProt P04049); test: Kinase inhibition assay (33P-ATP, P30 filter, scintillation counting): c-RAF; conditions: 40 min; 30µM Testsubstanz (100 µM ATP); read-out: Hemmung von Kinasen in % c-RAF (h)
Chain of c-RAF (h) (P04049 whole entry): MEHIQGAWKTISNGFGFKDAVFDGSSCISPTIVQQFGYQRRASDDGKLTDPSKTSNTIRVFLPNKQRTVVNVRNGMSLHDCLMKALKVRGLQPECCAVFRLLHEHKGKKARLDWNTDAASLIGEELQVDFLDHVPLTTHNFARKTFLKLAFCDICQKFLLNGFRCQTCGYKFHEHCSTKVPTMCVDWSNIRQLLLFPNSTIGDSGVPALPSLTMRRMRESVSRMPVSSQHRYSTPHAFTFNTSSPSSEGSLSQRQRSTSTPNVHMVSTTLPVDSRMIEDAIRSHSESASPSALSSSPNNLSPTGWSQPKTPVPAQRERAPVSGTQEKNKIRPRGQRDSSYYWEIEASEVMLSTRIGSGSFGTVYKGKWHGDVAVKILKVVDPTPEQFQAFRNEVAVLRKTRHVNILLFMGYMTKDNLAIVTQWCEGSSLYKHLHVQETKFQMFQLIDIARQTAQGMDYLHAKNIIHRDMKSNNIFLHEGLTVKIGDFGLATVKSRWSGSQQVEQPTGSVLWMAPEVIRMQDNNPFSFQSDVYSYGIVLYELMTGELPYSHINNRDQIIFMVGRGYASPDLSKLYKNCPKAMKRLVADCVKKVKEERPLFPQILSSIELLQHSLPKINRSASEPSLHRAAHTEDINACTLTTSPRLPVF
Experimental: as §1, §2
as §4, with “c-RAF (ha)(5-10 mU)” for “Lck (h)(5-10 mU)”, “mit 25” for “mit 50”, “pH 7.5,.0.02” for “pH 7.5, 0.1”, “EGTA, 0.66 mg/ml Myelin-Basisprotein,” for “EGTA, 0.1 mM NaVanadate, 250 µM KVEKIGEGTYGVVYK (Cdc2 Peptid),”, “etwa 50” for “etwa 500”

ROCKII (h) = test: Kinase inhibition assay (33P-ATP, P30 filter, scintillation counting): ROCK-II; conditions: 30µM Testsubstanz (100 µM ATP); 40 min
PKA (h) = test: Kinase inhibition assay (33P-ATP, P30 filter, scintillation counting): PKA; conditions: 30µM Testsubstanz (100 µM ATP); 40 min

Chain of GSK3β (h) (P49841 whole entry): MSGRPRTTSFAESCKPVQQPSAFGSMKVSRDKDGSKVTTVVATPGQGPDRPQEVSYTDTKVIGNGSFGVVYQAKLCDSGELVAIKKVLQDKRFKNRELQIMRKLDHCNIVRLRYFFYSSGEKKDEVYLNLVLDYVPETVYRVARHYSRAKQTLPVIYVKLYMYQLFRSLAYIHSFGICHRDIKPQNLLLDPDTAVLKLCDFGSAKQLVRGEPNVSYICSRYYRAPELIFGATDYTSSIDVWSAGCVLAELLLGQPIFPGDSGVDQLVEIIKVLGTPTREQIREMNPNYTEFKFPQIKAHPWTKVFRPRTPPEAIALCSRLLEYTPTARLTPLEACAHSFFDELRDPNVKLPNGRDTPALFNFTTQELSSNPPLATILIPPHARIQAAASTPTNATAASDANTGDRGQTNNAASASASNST

Row | SMILES | inhibition at 30 µM (GSK3β (h)) [%] | inhibition at 30 µM (PKB (h)) [%] | inhibition at 30 µM (SAPK2a (h)) [%] | inhibition at 30 µM (Lck (h)) [%] | inhibition at 30 µM (MAPK2 (h)) [%] | inhibition at 30 µM (MEK1 (h)) [%] | inhibition at 30 µM (JNK3 (r)) [%] | inhibition at 30 µM (MAPK1 (h)) [%] | inhibition at 30 µM (c-RAF (h)) [%] | Hemmung von Kinasen in % ROCKII (h) (ROCKII (h)) [%] | Hemmung von Kinasen in % PKA (h) (PKA (h)) [%]
1 | Cn1cnc2c(Sc3ccc(F)cc3)ncnc21 [Verbd. 18, 6-(4-Fluoro-phenylsulfanyl)-9-methyl-9H-purin] | 0 | 0 | 38 | 2 | 12 | 6 | 9 | 9 | 12 | 6 | 1
2 | Cn1c(-c2ccccc2)nc2c(Sc3ccccc3)ncnc21 [Verbd. 23, 9-Methyl-8-phenyl-6-phenylsulfanyl-9H-purin] | 0 | 42 | 44 | 5 | 0 | 4 | 12 | 10 | 12 | 1 | 3
3 | Cn1c(-c2ccccc2)nc2c(Sc3ccc(F)cc3)ncnc21 [Verbd. 24, 6-(4-Fluoro-phenylsulfanyl)-9-methyl-8-phenyl-9H-purin] | 22 | 29 | 29 | 20 | 1 | 7 | 16 | 11 | 14 | 9 | 3
4 | Cn1c(-c2ccccc2)nc2c(-c3ccc(F)cc3)ncnc21 [Verbd. 41, 6-(4-Fluoro-phenyl)-9-methyl-8-phenyl-9H-purin] | 26 | 31 | 23 | 17 | 1 | 5 | 12 | 20 | 24 | 0 | 0
5 | Nc1ncnc2c1ncn2Cc1ccc(F)cc1 [Verbd. 42a, 9-(4-Fluoro-benzyl)-9H-purin-6-ylamin] | 7 | 0 | 7 | 19 | 11 | 7 | 17 | 17 | 25 | 5 | 1
6 | Nc1ncnc2ncn(Cc3ccc(F)cc3)c12 [Verbd. 43, 7-(4-Fluoro-benzyl)-7H-purin-6-ylamin] | 0 | 0 | 8 | 0 | 5 | 8 | 25 | 26 | 28 | 6 | 7
7 | COc1ncnc2ncn(Cc3ccc(F)cc3)c12 [Verbd. 44, 7-(4-Fluoro-benzyl)-6-methoxy-7H-purin] | 5 | 0 | 8 | 0 | 3 | 3 | 30 | 19 | 0 | 1 | 7
8 | c1ccc(Sc2ncnc3[nH]ccc23)cc1 [Verbd. 52, 4-Phenylsulfanyl-7H-pyrrolo[2,3-d]pyrimidin] | 11 | 0 | 56 | 56 | 4 | 41 | 0 | 11 | 22 | 36 | 0
